Results published in patent publication US5955493A, “Thiamorphinans with neuroprotective activity” (priority 1995, dated 1999).

What was measured:
[1] = system: Mice; experiment: Locomotion and falling behavior; assay type: in vivo; conditions: i.c.v.; for % mice showing significant effect (falling): at min. dose for falling; for % mice showing significant effect (locomotion): at min. dose for locomotion; for min. dose for falling / min. dose for locomotion: observed 15 to 30 min after injection
Method: Mice were placed individually in observation cages for a 60 minute habituation period, injected i.c.v. with the different compounds and observed from 15 to 30 min. after injection. Locomotion and falling behavior were assessed according to the procedure of Koek and Colpaert (J. Pharm. Exp. Ther., 1990, 252:349). For each mouse the presence of locomotion (locomotion with all four legs moving for at least 15 seconds) and falling behavior (falling from rearing or standing position backward or to the side) was recorded. Statistical significance of drug-induced changes in the occurrence of a particular behavior was tested by the method of Fray et al […].

[2] = system: AMPA-induced convulsions; experiment: Inhibition of AMPA-induced convulsions; assay type: in vivo, Male Swiss Webster mice; conditions: i.c.v.
Method: Male Swiss Webster mice [(SW) fBR]20-25 g, were coinjected intracerebroventricullarly (i.c.v.) with various doses of test compounds, α- and β-sulfallorphan, […]; Research Biochemical Inc.) kainic acid (0.25-0.75 nmol; Sigma Chemical Co.) and biculline (1-10 nmol; Research Biochemical Inc.) in total volume of 10 μl. […] The convulsive response to the AMPA, kainic acid and biculline was within 5 minutes of injection, characterized by wild running, popcorn jumping and myoclonic seizures (i.e. repetitive movements involving all limbs simultaneously, usually accompanied by loss of righting reflex). A minimum of 15 animals were used in each treatment group. The number of mice convulsing in each group was recorded. The dose producing convulsions in 50% of the mice (CD50) was calculated by the method of Litchfield and Wilcoxon. LD50, the dose producing mortality in 50% of the mice, was determined by Fisher's exect test. The results for both α- and β-sulfallorphan are summarized below in tables II and III.

[3] = system: Bicuculline-induced convulsions; experiment: Inhibition of bicuculline-induced convulsions; assay type: in vivo, Male Swiss Webster mice; conditions: i.c.v.
Method: (§1) Male Swiss Webster mice [(SW) fBR]20-25 g, were coinjected intracerebroventricullarly (i.c.v.) with various doses of test compounds, α- and β-sulfallorphan, with AMPA (0.25-2.0) nmol; Research Biochemical Inc.) kainic acid (0.25-0.75 nmol; Sigma Chemical Co.) and biculline (1-10 nmol; Research Biochemical Inc.) in total volume of 10 μl. […] The convulsive response to the AMPA, kainic acid and biculline was within 5 minutes of injection, characterized by wild running, popcorn jumping and myoclonic seizures (i.e. repetitive movements involving all limbs simultaneously, usually accompanied by loss of righting reflex). A minimum of 15 animals were used in each treatment group. The number of mice convulsing in each group was recorded. The dose producing convulsions in 50% of the mice (CD50) was calculated by the method of Litchfield and Wilcoxon. LD50, the dose producing mortality in 50% of the mice, was determined by Fisher's exect test. The results for both α- and β-sulfallorphan are summarized below in tables II and III.

[4] = system: Kainic acid-induced convulsions; experiment: Inhibition of kainic acid-induced convulsions; assay type: in vivo, Male Swiss Webster mice; conditions: i.c.v.
Method: as §1

[5] = system: Mice; experiment: Rotarod test (motor effects); assay type: in vivo; conditions: i.c.v.; for Max. % mice showing motor effect: rotarod 8 revolutions per min, *P ≤ 0.05 as compared with control
Description: The rotarod treadmill for mice (model 7600, UGO Basile, Italy) was used to assess the motor effects of the test compounds. The method used was similar to the procedure described by Dunham and Miya (J. Am. Pharmac. Assoc., 1957, 46:208). The apparatus consisted of a rod with a diameter of 2.5 cm which was suspended horizontally 50 cm above a plain working area. The rod was turned at a speed of 8 revolutions per min. Circular perspex separators were placed at intervals along the rod so that five animals could be tested at the same time. Before administering any compound, all tested mice were placed on the turning rod for 1 min on two consecutive days. Mice that fell from the rod during this test were excluded. The test compounds were administered i.c.v. and the % of mice showing motor effects was monitored.

[6] = system: NMDA-induced convulsion; experiment: Inhibition of NMDA-induced convulsion (i.c.v. coinjection); assay type: in vivo, Male Swiss Webster mice
Method: Male Swiss Webster mice [(SW) fBR] 20-25 g (Canadian Breading Farms St. Constant, Quebec), were coinjected intracerebroventricullarly (i.c.v.) with various doses of test compound and NMDA (1 and 2 nmol; Sigma Chemical Co., St. Louis, Mo.) in total volume of 10 μl. […] The convulsive response to NMDA was within 5 minutes of injection, characterized by wild running, popcorn jumping and myoclonic seizures (i.e. repetitive movements involving all limbs simultaneously, usually accompanied by loss of righting reflex). A minimum of 15 animals were used in each treatment group. The number of mice convulsing in each group was recorded. The dose producing convulsions in 50% of the mice (CD50) was calculated by the method of Litchfield and Wilcoxon ("Manual and Pharmacological Calculations with Computer Programs", 2nd ed., Springer, N.Y., 1987).

| Compound | Max. % mice showing motor effect [5] | CD50 ([6]; 1 nmol NMDA) | CD50 ([6]; 2 nmol NMDA) | also measured |
| --- | --- | --- | --- | --- |
| COc1ccc2c(c1)[C@]13CCCC[C@@H]1[C@H](C2)N(C)CC3 [dextromethorphan] | – | – | – | % mice showing significant effect (falling) [1]: 27%; % mice showing significant effect (locomotion) [1]: 30%; min. dose for falling [1]: 0.20 nmol/mouse; min. dose for locomotion [1]: 0.10 nmol/mouse |
| C=CC[S+]1CC[C@]23CCCC[C@H]2[C@H]1Cc1ccc(O)cc13 (stereo partly drawn) [β-sulfallorphan 16, 3-hydroxy-17-deaza-17-allylthionium-17-thiamorphinan] | 20% | 0.015 nmol/mouse | 0.28 nmol/mouse | CD50 ([2]; CD50 of AMPA (0.25-5 nmol/mouse) with 0.4 nmol/mouse β-sulfallorphan): 0.29 nmol/mouse; LD50 ([2]; LD50 of AMPA (0.25-5 nmol/mouse) with 0.4 nmol/mouse β-sulfallorphan, none = no mortality observed at dose tested): none; CD50 ([3]; CD50 of bicuculline (1-10 nmol/mouse) with 0.4 nmol/mouse β-sulfallorphan): 3.12 nmol/mouse; LD50 ([3]; LD50 of bicuculline (1-10 nmol/mouse) with 0.4 nmol/mouse β-sulfallorphan, none = no mortality observed at dose tested): none; CD50 ([4]; CD50 of kainic acid (0.25-0.72 nmol/mouse) with 0.4 nmol/mouse β-sulfallorphan): 0.39 nmol/mouse; LD50 ([4]; LD50 of kainic acid (0.25-0.72 nmol/mouse) with 0.4 nmol/mouse β-sulfallorphan, none = no mortality observed at dose tested): none; % mice showing significant effect (locomotion) [1]: 20%; locomotion and falling behavior (statement) [1]: less locomotion than dextromethorphan and required greater amount to exhibit a significant effect; min. dose for falling [1]: no effect; min. dose for locomotion [1]: 1.25 nmol/mouse |
| CC(C)=CC[S+]1CC[C@]23CCCC[C@H]2[C@H]1Cc1ccc(O)cc13 (relative stereo) [compound 13, 3-hydroxy-17-deaza-17-dimethylallylthionium-17-thiamorphinan] | 0% | 0.19 nmol/mouse | – | – |
| C=CC[S+]1CC[C@]23CCCC[C@H]2[C@H]1Cc1ccc(O)cc13 (relative stereo) [compound 12, 3-hydroxy-17-deaza-17-allylthionium-17-thiamorphinan] | – | 0.07 nmol/mouse | – | – |
| C=CCN1CC[C@]23CCCC[C@H]2[C@H]1Cc1ccc(O)cc13 [levallorphan] | – | 1.06 nmol/mouse | > 20 nmol/mouse | – |
| CN1CC[C@]23CCCC[C@H]2[C@H]1Cc1ccc(O)cc13 [levorphanol] | – | 0.21 nmol/mouse | > 200 nmol/mouse | – |
| C=CCN1CC[C@@]23CCCC[C@@H]2[C@@H]1Cc1ccc(O)cc13 [dextrallorphan] | – | 2.68 nmol/mouse | 43.2 nmol/mouse | – |
| Oc1ccc2c(c1)[C@@]13CCCC[C@H]1[C@@H](C2)[S+](CCc1ccccc1)CC3 (relative stereo) [compound 14, 3-hydroxy-17-deaza-17-phenethylthionium-17-thiamorphinan] | 20% | 0.99 nmol/mouse | – | – |
| C[S+]1CC[C@]23CCCC[C@H]2[C@H]1Cc1ccc(O)cc13 (relative stereo) [compound 17, 3-hydroxy-17-deaza-17-methylthionium-17-thiamorphinan] | 60% | 0.02 nmol/mouse | – | – |
| C[C@]12N[C@H](Cc3ccccc31)c1ccccc12 [MK-801] | – | – | – | % mice showing significant effect (falling) [1]: 50%; % mice showing significant effect (locomotion) [1]: 30%; min. dose for falling [1]: 1.50 nmol/mouse; min. dose for locomotion [1]: 0.25 nmol/mouse |
| CN1CC[C@@]23CCCC[C@@H]2[C@@H]1Cc1ccc(O)cc13 [dextrorphan, reference compound] | 60% | 0.55 nmol/mouse | > 100 nmol/mouse | motor effect (statement) ([5]; α-sulfallorphan 30 nmol/mouse, dextrorphan 60 nmol/mouse): induces a significant rise in motor effect |
